Measurements reported in patent US7311878B2, “Method and apparatus for producing synergistic biocide” (Hercules Incorporated, priority 2005, dated 2007).
Marks after values point to notes of the source that are not given here.

Test system: multi-species bacterial consortium
Test: dose-challenge efficacy assay against bacterial consortium, spread plate cell enumeration
Format: cell-based
Details: for effect on cell counts of the consortium (in words) / population size of bacterial consortium, log10 colony counts: Example 1; for effect on cell counts of the consortium (in words): 0.5 mg/l total, 20 minutes exposure, pH 5 to 8; for population size of bacterial consortium, log10 colony counts: 20 minute exposure, total halogen 0.5 mg/l, average of three values; for numbers of surviving cells, Log10 transformations of the plate counts: Example 2, 20-minute contact time, 0.5 mg/l (as Cl2) active, initial approx. 2×10^5 bacteria per milliliter
Procedure: The efficacies of the individual haloamines and the synergistic combination produced with the apparatus described above were determined using a consortium of microorganisms and a dose-response protocol. Concentrations of monochloramine and dichloramine reported herein are in units of milligrams per liter as measured by Cl2 analysis; the Hach DPD chlorine test (Hach Company, Loveland, Colo.) was used to measure the total available chlorine concentrations and are expressed as milligrams per liter as Cl2. The DPD assay is based on the amount of chlorine in a sample that reacts with N,N-diethyl-p-phenylenediamine oxalate. To determine the amount of monochloramine or dichloramine in a sample, an aliquot of the sample was transferred to a clean container, diluted with deionized water, as appropriate, and assayed according to the Hach DPD chlorine test. The assay measures the total amount of chlorine that can react with the indicator reagent. The reaction is measured by determining the absorbance of light at 530 nm. Therefore, for the purposes of this invention, a quantity of monochloramine or dichloramine presented in units of mg/l signifies that amount of monochloramine or dichloramine that contains the designated amount of milligrams per liter of reactive chlorine. Thus, for example, a sample treated with 1 mg/l monochloramine or dichloramine will contain a total available chlorine concentration of 1 mg/l. Similarly, a sample treated with 0.5 mg/l monochloramine and 0.5-mg/l dichloramine will contain a total available chlorine concentration of 1 mg/l.
The materials were tested against multi-species bacterial consortium (also referred to as an artificial consortium) containing approximately equal numbers of six bacterial strains. Although the test strains are representative of organisms present in paper mill systems; the effect is not limited to these bacteria. Two of the strains were Klebsiella pneumonia (ATCC 13883) and Pseudomonas aeruginosa (ATCC 15442). The other four strains were isolated from papermill systems and have been presumptively identified as Curtobacterium flaccumfaciens, Burkholderia cepacia, Bacillus maroccanus, and Pseudomonas glathei. Each strain was grown on Tryptic Soy Agar overnight at 37° C. Sterile cotton-tipped swabs were used to aseptically transfer cells to a sterile solution of saline. Each cell suspension was prepared to a desired concentration as measured by turbidity before equal volumes of each of the cell suspensions were then combined to prepare the consortium.
A sample of the biocide solution was aseptically collected at the end of line 11 after the apparatus had been operated for approximately 20 minutes and used in an efficacy assay. Samples of the monochloramine solution in reservoir 3 and the dichloramine solution in mixing chamber 16 were also collected to test efficacy of each active. In the assay, the bacterial consortium was prepared as described above and an appropriate quantity of the cell suspension was aseptically transferred to sterile saline with pH adjusted to selected values. The cells were then challenged with the haloamines and synergistic combinations of the haloamines. In each case, the total halogen concentration was 0.5 mg/l (as […]). In this example, in addition to untreated control, the consortium was exposed to the following treatments: (1) 0.5 mg/l of monochloramine; 0.5 mg/l dichloramine; (3) 0.25 mg/l monochloramine plus 0.25 mg/l dichloramine; and (4) 0.4 mg/l monochloramine plus 0.1 mg/l dichloramine. The consortium was exposed to the haloamines for 20 minutes before samples were removed for cell enumeration by the spread plate technique. […] The control counts presented in Table 1 are those obtained after a 20 minute exposure to saline with pH adjusted to the indicated value.
The dose-challenge studies were carried out as previously described using a freshly prepared bacterial consortium. Sterile saline was prepared with pH adjusted to values of 5.0, 6.0, 7.0 and 8.0. […]

ClNCl [DCA, dichloramine]
effect on cell counts of the consortium (in words): decreased cell counts | population size of bacterial consortium, log10 colony counts (pH 5 saline): 3.50 log10 colony counts | population size of bacterial consortium, log10 colony counts (pH 6 saline): 5.16 log10 colony counts | population size of bacterial consortium, log10 colony counts (pH 7 saline): 5.01 log10 colony counts | population size of bacterial consortium, log10 colony counts (pH 8 saline): 5.19 log10 colony counts | numbers of surviving cells, Log10 transformations of the plate counts (pH 5 saline): 3.56 Log10 | numbers of surviving cells, Log10 transformations of the plate counts (pH 6 saline): 5.16* Log10 | numbers of surviving cells, Log10 transformations of the plate counts (pH 7 saline): 5.07 Log10 | numbers of surviving cells, Log10 transformations of the plate counts (pH 8 saline): 5.24 Log10

NCl [MCA, monochloramine]
effect on cell counts of the consortium (in words): decreased cell counts | population size of bacterial consortium, log10 colony counts (pH 5 saline): 4.93 log10 colony counts | population size of bacterial consortium, log10 colony counts (pH 6 saline): 4.94 log10 colony counts | population size of bacterial consortium, log10 colony counts (pH 7 saline): 5.06 log10 colony counts | population size of bacterial consortium, log10 colony counts (pH 8 saline): 5.36 log10 colony counts | numbers of surviving cells, Log10 transformations of the plate counts (pH 5 saline): 5.03 Log10 | numbers of surviving cells, Log10 transformations of the plate counts (pH 6 saline): 4.84 Log10 | numbers of surviving cells, Log10 transformations of the plate counts (pH 7 saline): 5.13 Log10 | numbers of surviving cells, Log10 transformations of the plate counts (pH 8 saline): 5.41 Log10
